Experimental findings from US11305012B2, “Binding molecules specific for HER3 and uses thereof” (MedImmune, LLC, priority 2013, dated 2022) are described below.

Test [1] relates to MDA-MB-361 xenografts. Description: Orthotopic human MDA-MB-361 breast cancer xenograft model. The test is classed as in vivo, mouse. The following applies: trastuzumab and rhuMAb 2C4 10 mg/kg, lapatinib 100 mg/kg twice daily, 2C2-YTE 30 mg/kg. Here is the method: (§1) Orthotopic xenografts were established by injecting 5×10^6 cells per mouse (suspended in 50% matrigel) into the mammary fat pad on the right flank of 4 to 6-week-old athymic nu/nu mice. Estrogen pellets (0.36 mg) were placed under the skin of the left flank 1-2 days before cell injection. […] Lapatinib was administered by oral gavaging at 100 mg per kilogram body weight. Caliper measurements were used to calculate tumor volumes using the formula: tumor volume=π÷6(length×width×width) • for tumors grown in mice.

Test [2] concerns BT-474 xenografts. Nature of the test: Orthotopic human BT-474 breast cancer xenograft model. The test is classed as in vivo, mouse. Particulars: BT-474 orthotopic, antibodies 30 mg/kg, lapatinib 100 mg/kg. Here is the method:
Orthotopic xenografts were established by injecting 1×10^7 cells per mouse (suspended in 50% matrigel) into the mammary fat pad on the right flank of 4 to 6-week-old athymic nu/nu mice. Estrogen pellets (0.36 mg) were placed under the skin of the left flank 1-2 days before cell injection. […] Lapatinib was administered by oral gavaging at 100 mg per kilogram body weight. Caliper measurements were used to calculate tumor volumes using the formula: tumor volume=π÷6(length×width×width) • for tumors grown in mice.

Test [3] concerns human MCF-7 breast cancer xenograft. Nature of the test: Orthotopic human MCF-7 breast cancer xenograft model. The test is classed as in vivo, mouse. Particulars: MCF-7 orthotopic, 10 mg/kg. Here is the method: as §1, with “Human MCF-7 breast cancer cells were maintained at 37° C. in a 5% CO2 incubator in Optimem medium containing glutamax, 2.4/L sodium bicarbonate, Hepes and 5% fetal bovine serum. Orthotopic” for “Orthotopic”, “Paclitaxel” for “Lapatinib”, “intravenously” for “by oral gavaging”, “10” for “100”

For test [4], the system named is HER3, pHER3 and pAKT in SW620, SW480, Colo205, LOVO, HCT15, Caco-2. Description: HRG-stimulated HER3 signaling in CRC tumor cell lines (Western). The test is classed as cell-based, human. Particulars: antibodies 10 μg/mL, gefitinib 5 μM, HRG 50 ng/mL. Here is the method: In the presence of the HER3 ligand heregulin (HRG), HER3 heterodimerizes with EGFR or HER2, which leads to phosphorylation of HER3 and transmission of an oncogenic signal via phosphoinositide 3 kinase (PI3K) and protein kinase B (PKB), also known as AKT. A collection of CRC models were characterized to determine which receptor tyrosine kinase, EGFR or HER2, is the major driver of signaling through HER3. […] Briefly, cells were seeded into 24-well plates at a density of 1.5×10^5 cells per well. […] After 5-6 hours of incubation at 37° C., HRG was added at 50 ng/mL into one set of cells for 15 minutes at 37° C. All cells were then washed with cold PBS and lysed by the addition of 60 μL of 2×SDS (sodium dodecyl sulfate) sample buffer (Invitrogen). Lysates were transferred to 1.5 mL tubes and boiled for 5 minutes followed by chilling on ice for 2 minutes. Equal volumes (20 μL) of protein samples were resolved in NuPAGE Novex Bis-Tris gels (Invitrogen) before transfer to polyvinylidene fluoride (PVDF) membranes (Invitrogen). […] After washing, protein bands were detected on X-ray film by using SuperSignal West Pico Chemiluminescent Substrate (Pierce/Thermo Scientific).

The subject of test [5] is JIMT-1 breast cancer xenografts. Nature of the test: Orthotopic human JIMT-1 breast cancer xenograft model. The test is classed as in vivo, mouse. Here is the method: Orthotopic xenografts were established by injecting 5×10^6 cells per mouse (suspended in 50% matrigel) into the mammary fat pad on the right flank of 4 to 6-week-old athymic nu/nu mice. […] Treatment with antibodies were administered starting at day 8 post-implantation of JIMT-1 cells. […]

Setting [6] is: 10 mpk (each), day 32 post-implantation of JIMT-1 cells, vs control IgG1.

With `CS(=O)(=O)CCNCc1ccc(-c2ccc3ncnc(Nc4ccc(OCc5cccc(F)c5)c(Cl)c4)c3c2)o1` [lapatinib, reference compound], the results for the “anti-tumor efficacy (in words)” value in test [1] and in test [2] were “showed anti-tumor efficacy” and “tumor stasis”, respectively.
Consider `CC(=O)O[C@H]1C(=O)[C@@]2(C)[C@H]([C@H](OC(=O)c3ccccc3)[C@]3(O)C[C@H](OC(=O)[C@H](O)[C@@H](NC(=O)c4ccccc4)c4ccccc4)C(C)=C1C3(C)C)[C@]1(OC(C)=O)CO[C@@H]1C[C@@H]2O` [Paclitaxel, paclitaxel, reference compound], for which the “anti-tumor efficacy (in words)” value in test [3] was “clear anti-tumor efficacy”.
On to “pertuzumab [RhuMAb 2C4, reference compound]”, for which the “anti-tumor efficacy (in words)” value in test [1] is “showed anti-tumor efficacy”. Further, the “effect on HRG ligand-dependent signaling (HER3, pHER3, pAKT; in words)” value in test [4] is reported as “inhibit HRG ligand-dependent signaling”. Also, in test [5] (setting [6]), the “% TGI” value was 13.64% and the “% dTGI” value is listed as 17.42%. In addition, in test [5] (JIMT-1, 10 mg/kg (each)), the “anti-tumor efficacy (in words)” value is “did not result in any significant reduction”.
Consider `COc1cc2ncnc(Nc3ccc(F)c(Cl)c3)c2cc1OCCCN1CCOCC1` [gefitinib], for which the “effect on HRG ligand-dependent signaling (HER3, pHER3, pAKT; in words)” value in test [4] is on record as “no effect”.
